These results are taken from ChEMBL document CHEMBL3612055, “Design, synthesis and biological evaluation of 1,3-diphenyl-1H-pyrazole derivatives containing benzimidazole skeleton as potential anticancer and apoptosis inducing agents” (Eur J Med Chem, 2015).

What is called IC50 is the concentration needed to halve the response being measured.

Test [1] concerns A549. Nature of the test: Anticancer activity against human A549 cells assessed as reduction in cell growth incubated for 48 hrs by MTT assay. The format is functional, cell-based. As to conditions: A549, 48 h. A general note: Tetrazolium assays rely on reduction of a dye to a coloured formazan, in cell work by metabolically active cells.
The test system of test [2] is MCF7. Nature of the test: Anticancer activity against human MCF7 cells assessed as reduction in cell growth incubated for 48 hrs by MTT assay. It counts as functional, cell-based. The settings on record: MCF7, 48 h.
For test [3], the system named is HeLa. Nature of the test: Anticancer activity against human HeLa cells assessed as reduction in cell growth incubated for 48 hrs by MTT assay. The format is functional, cell-based.
Test [4] has as its system HaCaT. Kind of test: Cytotoxic activity against human HaCaT cells assessed as reduction in cell growth incubated for 48 hrs by MTT assay. The format is cell-based.

Take `c1ccc(-c2nn(-c3ccccc3)cc2-c2nc3cc4ccccc4cc3[nH]2)cc1`: the IC50 in test [1] was 19.3 µM; in test [2] it was 12.6 µM; in test [3] it was 21.3 µM; in test [4], > 50 µM.

Consider `FC(F)(F)c1ccc2[nH]c(-c3cn(-c4ccccc4)nc3-c3ccccc3)nc2c1`, for which the half-inhibitory concentration (IC50) in test [1] amounted to 5.93 µM; in test [2] it was 2.66 µM; in test [3], 1.92 µM; in test [4], 37.2 µM.

`Fc1ccc(-c2nn(-c3ccccc3)cc2-c2nc3cc(Cl)c(Cl)cc3[nH]2)cc1`: the IC50 in test [1] was 15.7 µM; in test [2] it was 6.93 µM; in test [3], 11.6 µM; in test [4], 44.6 µM.

For the compound `c1ccc(-c2nn(-c3ccccc3)cc2-c2nc3ccccc3[nH]2)cc1`, the IC50 was 2.71 µM in test [1], 3.19 µM in test [2], 1.55 µM in test [3] and > 50 µM in test [4].

Turning to `COc1ccc2[nH]c(-c3cn(-c4ccccc4)nc3-c3ccc(Cl)cc3)nc2c1`, the IC50 in test [1] is 2.42 µM; in test [2], 1.76 µM; in test [3], 3.63 µM; in test [4] it was > 50 µM.

Turning to `Clc1cc2nc(-c3cn(-c4ccccc4)nc3-c3ccccc3)[nH]c2cc1Cl`, the IC50 in test [1] stood at 11.1 µM; in test [2], 7.56 µM; in test [3] it was 13.4 µM; in test [4], 29.7 µM.

With `Clc1ccc(-c2nn(-c3ccccc3)cc2-c2nc3cc(Cl)c(Cl)cc3[nH]2)cc1`, the IC50 in test [1] was 19.1 µM; in test [2], 48.3 µM; in test [3] it was 12.1 µM; in test [4], > 50 µM.

In the case of `COc1ccc2[nH]c(-c3cn(-c4ccccc4)nc3-c3ccccc3)nc2c1`, the IC50 in test [1] was 1.23 µM; in test [2] it was 1.59 µM; in test [3], 2.87 µM; in test [4], > 50 µM.

Take `COc1ccc2[nH]c(-c3cn(-c4ccccc4)nc3-c3ccc(F)cc3)nc2c1`: the IC50 is 1.96 µM in test [1], 0.97 µM in test [2], 7.51 µM in test [3] and > 50 µM in test [4].

Regarding `FC(F)(F)c1ccc2[nH]c(-c3cn(-c4ccccc4)nc3-c3ccc(Cl)cc3)nc2c1`, the IC50 in test [1] came to 3.36 µM; in test [2], 4.21 µM; in test [3] it was 4.42 µM; in test [4] it was 41.8 µM.

`Cc1ccc2[nH]c(-c3cn(-c4ccccc4)nc3-c3ccc(Cl)cc3)nc2c1`: the IC50 in test [1] was 4.64 µM; in test [2] it was 8.23 µM; in test [3], 5.36 µM; in test [4] it was > 50 µM.

Take `Fc1ccc(-c2nn(-c3ccccc3)cc2-c2nc3ccccc3[nH]2)cc1`: the IC50 is 1.51 µM in test [1], 3.2 µM in test [2], 2.33 µM in test [3] and > 50 µM in test [4].

Take `O=Cc1cn(-c2ccccc2)nc1-c1ccc(Cl)cc1`: the IC50 in test [1] was 29.5 µM; in test [2] it was 9.65 µM; in test [3] it was 15.5 µM; in test [4], > 50 µM.

Consider `Clc1ccc(-c2nn(-c3ccccc3)cc2-c2nc3cc4ccccc4cc3[nH]2)cc1`, for which the IC50 was 7.73 µM in test [1], 13.9 µM in test [2], 8.13 µM in test [3] and > 50 µM in test [4].

Regarding `O=Cc1cn(-c2ccccc2)nc1-c1ccc(F)cc1`, the IC50 in test [1] is 8.66 µM; in test [2] it was 24.8 µM; in test [3], 16.6 µM; in test [4] it was > 50 µM.

In the case of `Fc1ccc(-c2nn(-c3ccccc3)cc2-c2nc3cc(C(F)(F)F)ccc3[nH]2)cc1`, the IC50 in test [1] was 2.34 µM; in test [2] it was 2.13 µM; in test [3], 3.52 µM; in test [4], > 50 µM.

Regarding `Fc1ccc(-c2nn(-c3ccccc3)cc2-c2nc3cc(Cl)ccc3[nH]2)cc1`, the IC50 in test [1] was 1.32 µM; in test [2] it was 2.23 µM; in test [3], 2.77 µM; in test [4], > 50 µM.

In the case of `COc1ccc(-c2nn(-c3ccccc3)cc2-c2nc3cc(Cl)ccc3[nH]2)cc1`, the IC50 in test [1] was 3.13 µM; in test [2], 1.76 µM; in test [3], 1.29 µM; in test [4], > 50 µM.

Turning to `Clc1ccc2[nH]c(-c3cn(-c4ccccc4)nc3-c3ccccc3)nc2c1`, the half-maximal inhibitory concentration (IC50) in test [1] was 2.37 µM; in test [2], 1.96 µM; in test [3], 3.48 µM; in test [4], > 50 µM.

Regarding `COc1ccc(-c2nn(-c3ccccc3)cc2-c2nc3cc(C)ccc3[nH]2)cc1`, the IC50 in test [1] was 5.07 µM; in test [2] it was 6.61 µM; in test [3], 3.29 µM; in test [4] it was > 50 µM.

With `COc1ccc(-c2nn(-c3ccccc3)cc2-c2nc3cc(Br)ccc3[nH]2)cc1`, the IC50 in test [1] was 6.37 µM; in test [2] it was 1.83 µM; in test [3], 1.06 µM; in test [4] it was > 50 µM.

`Cc1ccc2[nH]c(-c3cn(-c4ccccc4)nc3-c3ccccc3)nc2c1`: the IC50 in test [1] was 3.61 µM; in test [2], 5.94 µM; in test [3] it was 6.56 µM; in test [4], > 50 µM.

Take `Cc1cc2nc(-c3cn(-c4ccccc4)nc3-c3ccccc3)[nH]c2cc1C`: the IC50 in test [1] was 14.5 µM; in test [2], > 50 µM; in test [3] it was 41.5 µM; in test [4], > 50 µM.

As for `Cc1cc2nc(-c3cn(-c4ccccc4)nc3-c3ccc(F)cc3)[nH]c2cc1C`, the IC50 is > 50 µM in test [1], 27.2 µM in test [2], 10.2 µM in test [3] and > 50 µM in test [4].

Consider `Clc1ccc(-c2nn(-c3ccccc3)cc2-c2nc3ccccc3[nH]2)cc1`, for which the concentration for half-maximal inhibition (IC50) in test [1] is 5.96 µM; in test [2], 3.03 µM; in test [3], 1.65 µM; in test [4], > 50 µM.

For the compound `COc1ccc(-c2nn(-c3ccccc3)cc2-c2nc3cc(C(F)(F)F)ccc3[nH]2)cc1`, the IC50 in test [1] was 4.82 µM; in test [2] it was 5.73 µM; in test [3], 2.76 µM; in test [4], > 50 µM.

Consider `COc1ccc(-c2nn(-c3ccccc3)cc2-c2nc3cc(F)ccc3[nH]2)cc1`, for which the IC50 is 1.98 µM in test [1], 1.51 µM in test [2], 1.74 µM in test [3] and > 50 µM in test [4].

As to `COc1ccc(-c2nn(-c3ccccc3)cc2-c2nc3cc(Cl)c(Cl)cc3[nH]2)cc1`, the IC50 in test [1] is 7.33 µM; in test [2], 13.2 µM; in test [3], 6.6 µM; in test [4], > 50 µM.

For `COc1ccc(-c2nn(-c3ccccc3)cc2-c2nc3cc(OC)ccc3[nH]2)cc1`, the half-maximal inhibitory concentration (IC50) in test [1] was 22.7 µM; in test [2] it was 3.13 µM; in test [3] it was 1.14 µM; in test [4] it was > 50 µM.

Regarding `COc1ccc(-c2nn(-c3ccccc3)cc2-c2nc3cc4ccccc4cc3[nH]2)cc1`, the IC50 in test [1] is 11.9 µM; in test [2] it was 7.46 µM; in test [3], 12.4 µM; in test [4] it was > 50 µM.

Take `Fc1ccc(-c2nn(-c3ccccc3)cc2-c2nc3cc(Br)ccc3[nH]2)cc1`: the IC50 turned out to be 5.83 µM in test [1], 3.21 µM in test [2], 4.94 µM in test [3] and 21.8 µM in test [4].

`Fc1ccc2[nH]c(-c3cn(-c4ccccc4)nc3-c3ccc(Cl)cc3)nc2c1`: the IC50 is 4.61 µM in test [1], 2.83 µM in test [2], 2.77 µM in test [3] and > 50 µM in test [4].

For the compound `COc1ccc(-c2nn(-c3ccccc3)cc2-c2nc3cc(C)c(C)cc3[nH]2)cc1`, the IC50 in test [1] is 5.85 µM; in test [2], 12.8 µM; in test [3] it was 8.93 µM; in test [4], 21.4 µM.

Take `Cc1ccc2[nH]c(-c3cn(-c4ccccc4)nc3-c3ccc(F)cc3)nc2c1`: the IC50 in test [1] is 1.44 µM; in test [2], 1.12 µM; in test [3], 3.63 µM; in test [4] it was > 50 µM.

For the compound `COc1ccc(-c2nn(-c3ccccc3)cc2-c2nc3ccccc3[nH]2)cc1`, the IC50 was 2.36 µM in test [1], 2.54 µM in test [2], 3.67 µM in test [3] and > 50 µM in test [4].

As to `Cc1cc2nc(-c3cn(-c4ccccc4)nc3-c3ccc(Cl)cc3)[nH]c2cc1C`, the IC50 is 17.7 µM in test [1], 13 µM in test [2], 21.8 µM in test [3] and > 50 µM in test [4].

In the case of `O=c1[nH]cc(F)c(=O)[nH]1` [FLUOROURACIL], the IC50 in test [1] was found to be 2.13 µM; in test [2], 2.36 µM; in test [3] it was 4.6 µM; in test [4] it was 15.3 µM.

As for `Fc1ccc(-c2nn(-c3ccccc3)cc2-c2nc3cc4ccccc4cc3[nH]2)cc1`, the IC50 in test [1] is 21.5 µM; in test [2] it was 9.24 µM; in test [3], 23.6 µM; in test [4], > 50 µM.

As for `Clc1ccc(-c2nn(-c3ccccc3)cc2-c2nc3cc(Br)ccc3[nH]2)cc1`, the half-inhibitory concentration (IC50) in test [1] is 2.17 µM; in test [2] it was 1.92 µM; in test [3] it was 2.16 µM; in test [4] it was > 50 µM.

For `Fc1ccc2[nH]c(-c3cn(-c4ccccc4)nc3-c3ccccc3)nc2c1`, the IC50 was 1.72 µM in test [1], 2.43 µM in test [2], 3.61 µM in test [3] and > 50 µM in test [4].
